In this data set the target is SOD1. The following applies: ASO.

We go through 58 sequences from the OligoGym collection.

Where “and” joins values, the source holds several entries; their conditions need not be identical. Equal entries are not always repeated. After the bases stand the sugars from the 5' end (letter, count) and the backbone: PS all phosphorothioate, else s phosphorothioate and o phosphodiester by linkage. Methylation of C is not given here. e = 2'-O-(2-methoxyethyl) (MOE); k = constrained ethyl (cEt); d = 2'-deoxy (DNA)

“TAATGTTTATCAGGATA (sugars e2 k2 d9 k2 e2, PS)”: the target mRNA inhibition was 28% (HepG2, 0.1875 µM); 66% (HepG2, 0.75 µM); 91% (HepG2, 3 µM); 85% and 82% (HepG2, 4 µM); 93% and 98% (HepG2, 12 µM).

Regarding “ATGTTTATTGGGCGATC (sugars e2 k2 d9 k2 e2, PS)”, the target mRNA inhibition (HepG2, 4 µM) was 64%.

For “TTAAGATTACAGTGTTT (sugars e3 k2 d7 k2 e3, PS)”, the target mRNA inhibition (HepG2, 3 µM) stood at 54%.

As for “GTCCTTTAATGCTTCCCCAC (sugars e5 d10 e5, PS)”, under “HepG2, 4 µM”, the target mRNA inhibition came to 9%.

For the sequence “GTTTAATGTTTATCAGGATA (sugars e5 d10 e5, PS)”, the target mRNA inhibition by setting is: (HepG2, 0.1875 µM) 15%; (HepG2, 0.75 µM) 37%; (HepG2, 3 µM) 70%; (HepG2, 5 µM) 71%; (HepG2, 12 µM) 88%.

“AATGTTTATCAGGATAC (sugars e2 k2 d8 k2 e3, PS)” gave a target mRNA inhibition (HepG2, 0.1875 µM) of 51%; a target mRNA inhibition (HepG2, 0.75 µM) of 79%; a target mRNA inhibition (HepG2, 3 µM) of 92%; a target mRNA inhibition (HepG2, 4 µM) of 89%; a target mRNA inhibition (HepG2, 12 µM) of 96%.

Turning to “ATGTTTATCAGGATACA (sugars eeeeddddddddkekee, linkages s1 o2 s9 o2 s2)”, the target mRNA inhibition reads like this: (A431, 0.062 µM) 12%; (A431, 0.185 µM) 19%; (A431, 0.556 µM) 29%; (A431, 1.667 µM) 38%; (A431, 5 µM) 51% and 50%; (A431, 15 µM) 61%. Moreover, the target mRNA inhibition reads like this: (SH-SY5Y, 0.062 µM) 15%; (SH-SY5Y, 0.185 µM) 27%; (SH-SY5Y, 0.556 µM) 52%; (SH-SY5Y, 1.667 µM) 63%; (SH-SY5Y, 5 µM) 79%; (SH-SY5Y, 15 µM) 92%.

Turning to “GGATACATTTCTACAGC (sugars e2 k2 d9 k2 e2, PS)”, the target mRNA inhibition was found to be 44% (HepG2, 0.1875 µM); 67% (HepG2, 0.75 µM); 89% (HepG2, 3 µM); 84% (HepG2, 4 µM); 94% (HepG2, 12 µM).

For the sequence “GCCCAAGTCTCCAACATGCC (sugars e5 d10 e5, PS)”, under “HepG2, 5 µM”, the target mRNA inhibition is 61% and 53%.

The sequence “TGGGCCGTCGCCCTTCAGCA (sugars e5 d10 e5, PS)” came in with a target mRNA inhibition (HepG2, 4 µM) of 12%.

As to “GAGGACTGCAACGGAAACCC (sugars e5 d10 e5, PS)”, under “HepG2, 4 µM”, the target mRNA inhibition amounted to 24%.

For the setting “HepG2, 3 µM”, “CCTTCTGCTCGAAATTGATG (sugars e5 d10 e5, PS)” returned a target mRNA inhibition of 53%.

In the case of “GCAATGGTCTCCTGAGAGTG (sugars e5 d10 e5, PS)”, the target mRNA inhibition (HepG2, 5 µM) turned out to be 57%.

The sequence “AAGTGCCATACAGGGTT (sugars e2 k2 d8 k2 e3, PS)” registered a target mRNA inhibition (HepG2, 5 µM) of 15%.

For the setting “HepG2, 3 µM”, “ATTCACAGGCTTGAATG (sugars e3 k2 d7 k2 e3, PS)” came in with a target mRNA inhibition of 11%.

The sequence “TGCTCGAAATTGATGATGCC (sugars e5 d10 e5, PS)” registered a target mRNA inhibition (HepG2, 4 µM) of 20%.

Where the note is “HepG2, 3 µM”, “CTCTCTTCATCCTTTGG (sugars e3 k2 d7 k2 e3, PS)” registered a target mRNA inhibition of 2%.

Turning to “CTTCAATAGACACATCGGCC (sugars e5 d10 e5, PS)”, for the setting “HepG2, 5 µM”, the target mRNA inhibition is 39% and 16%.

On to “GTTTAATGTTTATCAGG (sugars e2 k2 d9 k2 e2, linkages s1 o3 s9 o1 s2)”, for which the target mRNA inhibition is, setting by setting: (A431, 0.12 µM) 25%; (A431, 0.6 µM) 69%; (A431, 3 µM) 89%; (A431, 15 µM) 95%; (HepG2, 0.222 µM) 76%; (HepG2, 0.667 µM) 90%. In addition, the target mRNA inhibition is 94% (HepG2, 2 µM) and 93% (HepG2, 6 µM).

The sequence “CTACAGGTACTTTAAAG (sugars e2 k2 d8 k2 e3, PS)” returned a target mRNA inhibition (HepG2, 5 µM) of 2%.

In turn, “GACTACGACGCAAACCAGCA (sugars e5 d10 e5, PS)” yielded a target mRNA inhibition (HepG2, 4 µM) of 40%.

For “TTCACAGGCTTGAATGA (sugars e2 k2 d9 k2 e2, PS)”, under “HepG2, 5 µM”, the target mRNA inhibition turned out to be 16%.

Take “TCATGAACATGGAATCCATG (sugars e5 d10 e5, PS)”: the target mRNA inhibition (HepG2, 5 µM) was 24% and 19%.

“CGTCGCCCTTCAGCACG (sugars e2 k2 d8 k2 e3, PS)” gave a target mRNA inhibition (HepG2, 4 µM) of 52%.

Take “TCGCCCTTCAGCACGCA (sugars e2 k2 d8 k2 e3, PS)”: the target mRNA inhibition (HepG2, 4 µM) was 56% and 55%; the target mRNA inhibition (HepG2, 5 µM) was 53% and 64%; the target mRNA inhibition (HepG2, 12 µM) was found to be 71%.

“CAGTGTGCGGCCAATGATGC (sugars e5 d10 e5, PS)” came in with a target mRNA inhibition (HepG2, 5 µM) of 0%.

Consider “CTGGCAAAATACAGGTC (sugars e2 k2 d8 k2 e3, PS)”, for which the target mRNA inhibition (HepG2, 5 µM) was 25%.

The sequence “CTTTTAATAGCCTCATA (sugars e2 k2 d8 k2 e3, PS)” came in with a target mRNA inhibition (HepG2, 5 µM) of 45%.

The sequence “ACAGTGTTTAATGTTT (sugars kekeddddddddekek, linkages s1 o3 s8 o1 s2)” had a target mRNA inhibition (A431, 0.12 µM) of 0%; a target mRNA inhibition (A431, 0.6 µM) of 0%; a target mRNA inhibition (A431, 3 µM) of 0%; a target mRNA inhibition (A431, 15 µM) of 6%; a target mRNA inhibition (HepG2, 0.222 µM) of 55%; a target mRNA inhibition (HepG2, 0.667 µM) of 68%. For the same sequence, the target mRNA inhibition worked out at 78% (HepG2, 2 µM) and 88% (HepG2, 6 µM).

“GTGCCATACAGGGTTTT (sugars e2 k2 d8 k2 e3, PS)” had a target mRNA inhibition (HepG2, 5 µM) of 20%.

In turn, “CTCCGCGACTACTTTATAGG (sugars e5 d10 e5, PS)” showed a target mRNA inhibition (HepG2, 4 µM) of 27%.

“TGGATAGAGGATTAAAG (sugars e3 k2 d7 k2 e3, PS)” came in with a target mRNA inhibition (HepG2, 3 µM) of 23%.

In turn, “AAACTATACAAATCTTC (sugars e3 k2 d7 k2 e3, PS)” came in with a target mRNA inhibition (HepG2, 3 µM) of 26%.

Consider “GACACATCGGCCACACCATC (sugars e5 d10 e5, PS)”, for which, where the note is “HepG2, 5 µM”, the target mRNA inhibition is 45% and 30%.

With “GGCAAAATACAGGTCAT (sugars e3 k2 d7 k2 e3, PS)”, the target mRNA inhibition (HepG2, 3 µM) turned out to be 39%.

The sequence “TAGCCTCATAATAAGTG (sugars e2 k2 d8 k2 e3, PS)” displayed a target mRNA inhibition (HepG2, 5 µM) of 11%.

For “TTCAGTCAGTCCTTTAATGC (sugars e5 d10 e5, PS)”, the target mRNA inhibition (HepG2, 5 µM) was 24% and 21%.

As to “GCTAGCAGGATAACAGA (sugars e2 k2 d9 k2 e2, PS)”, for the setting “HepG2, 4 µM”, the target mRNA inhibition stood at 43%.

“TACACCACAAGCCAAAC (sugars e2 k2 d9 k2 e2, PS)” came in with a target mRNA inhibition (HepG2, 4 µM) of 63%.

Take “TGTTTATCAGGATACAT (sugars e2 k2 d9 k2 e2, PS)”: the target mRNA inhibition came to 37% (HepG2, 0.1875 µM); 63% (HepG2, 0.75 µM); 83% (HepG2, 3 µM); 83% (HepG2, 4 µM); 95% (HepG2, 12 µM).

As for “ACTGGGCCGTCGCCCTTCAG (sugars e5 d10 e5, PS)”, the target mRNA inhibition (HepG2, 4 µM) turned out to be 26%.

“TAGCAGGATAACAGATG (sugars e3 k2 d7 k2 e3, PS)” registered a target mRNA inhibition (HepG2, 3 µM) of 34%.

For “CATGGAATCCATGCAGG (sugars e3 k2 d7 k2 e3, PS)”, the target mRNA inhibition (HepG2, 3 µM) turned out to be 14%.

Regarding “CAGGATACATTTCTACAGCT (sugars e5 d10 e5, linkages s1 o3 s11 o2 s2)”, the target mRNA inhibition reads like this: (A431, 0.062 µM) 33%; (A431, 0.185 µM) 29%; (A431, 0.556 µM) 52%; (A431, 0.6 µM) 50%; (A431, 1.667 µM) 62%; (A431, 5 µM) 74%. The target mRNA inhibition (A431, 15 µM) turned out to be 82%; the target mRNA inhibition (SH-SY5Y, 0.062 µM) came out at 10%; the target mRNA inhibition (SH-SY5Y, 0.185 µM) was 10%; the target mRNA inhibition (SH-SY5Y, 0.556 µM) came to 33%; the target mRNA inhibition (SH-SY5Y, 1.667 µM) came to 61%; the target mRNA inhibition (SH-SY5Y, 5 µM) was found to be 81%. Moreover, for the setting “SH-SY5Y, 15 µM”, the target mRNA inhibition stood at 92%.

Turning to “GGCGATCCCAATTACAC (sugars e2 k2 d9 k2 e2, PS)”, under “HepG2, 4 µM”, the target mRNA inhibition was determined as 66%.

Turning to “CAGCTAGCAGGATAACA (sugars e2 k2 d8 k2 e3, PS)”, the target mRNA inhibition (HepG2, 4 µM) stood at 71%.

Where the note is “HepG2, 3 µM”, “AGCAGTCACATTGCCCA (sugars e3 k2 d7 k2 e3, PS)” registered a target mRNA inhibition of 18%.

The sequence “TTATTCACAGGCTTGAA (sugars e3 k2 d7 k2 e3, PS)” displayed a target mRNA inhibition (HepG2, 3 µM) of 10%.

On to “GTTTATTGGGCGATCCC (sugars e2 k2 d9 k2 e2, PS)”, for which, under “HepG2, 4 µM”, the target mRNA inhibition turned out to be 68%.

Sequence “GATTACAGTGTTTAATG (sugars e2 k2 d8 k2 e3, PS)” registered a target mRNA inhibition (HepG2, 5 µM) of 54%.

“ACATCCAAGGGAATGTT (sugars e3 k2 d7 k2 e3, PS)” had a target mRNA inhibition (HepG2, 3 µM) of 30%.

“AATCCATGCAGGCCTTC (sugars e3 k2 d7 k2 e3, PS)” had a target mRNA inhibition (HepG2, 3 µM) of 13%.

On to “TGGGCGATCCCAATTAC (sugars e2 k2 d9 k2 e2, PS)”, for which the target mRNA inhibition (HepG2, 4 µM) came out at 46%.

In turn, “AATGTTTATTGGGCGAT (sugars e2 k2 d8 k2 e3, PS)” came in with a target mRNA inhibition (HepG2, 4 µM) of 61%.

Regarding “CCTTTAATGCTTCCCCACAC (sugars e5 d10 e5, PS)”, the target mRNA inhibition (HepG2, 4 µM) worked out at 1%.

“CCCATCTGTGATTTAAG (sugars e2 k2 d8 k2 e3, PS)” gave a target mRNA inhibition (HepG2, 5 µM) of 49%.

On to “TAATGTTTATCAGGAT (sugars ekddddddddekekee, linkages s1 o1 s8 o3 s2)”, for which the target mRNA inhibition reads like this: (A431, 0.12 µM) 1%; (A431, 0.6 µM) 9%; (A431, 3 µM) 22%; (A431, 15 µM) 46%.

Turning to “AGTTTAATACCCATCTG (sugars e2 k2 d8 k2 e3, PS)”, where the note is “HepG2, 5 µM”, the target mRNA inhibition came to 29%.
